Molecular target: PepA-Nter (N-terminal ANP-like domain of PepA, PP_2561) (Pseudomonas putida, UniProt Q88JT6)
Assay: peroxidase assay, quinoneimine formation at […] nm
Type: biochemical
Details: heme-reconstituted; electron donor with phenol; H2O2 0.25-45 mM varied; potassium phosphate pH 7.0, 25 °C

PepA-Nter (N-terminal ANP-like domain of PepA, PP_2561), sequence (Q88JT6 1-875 limits assumed): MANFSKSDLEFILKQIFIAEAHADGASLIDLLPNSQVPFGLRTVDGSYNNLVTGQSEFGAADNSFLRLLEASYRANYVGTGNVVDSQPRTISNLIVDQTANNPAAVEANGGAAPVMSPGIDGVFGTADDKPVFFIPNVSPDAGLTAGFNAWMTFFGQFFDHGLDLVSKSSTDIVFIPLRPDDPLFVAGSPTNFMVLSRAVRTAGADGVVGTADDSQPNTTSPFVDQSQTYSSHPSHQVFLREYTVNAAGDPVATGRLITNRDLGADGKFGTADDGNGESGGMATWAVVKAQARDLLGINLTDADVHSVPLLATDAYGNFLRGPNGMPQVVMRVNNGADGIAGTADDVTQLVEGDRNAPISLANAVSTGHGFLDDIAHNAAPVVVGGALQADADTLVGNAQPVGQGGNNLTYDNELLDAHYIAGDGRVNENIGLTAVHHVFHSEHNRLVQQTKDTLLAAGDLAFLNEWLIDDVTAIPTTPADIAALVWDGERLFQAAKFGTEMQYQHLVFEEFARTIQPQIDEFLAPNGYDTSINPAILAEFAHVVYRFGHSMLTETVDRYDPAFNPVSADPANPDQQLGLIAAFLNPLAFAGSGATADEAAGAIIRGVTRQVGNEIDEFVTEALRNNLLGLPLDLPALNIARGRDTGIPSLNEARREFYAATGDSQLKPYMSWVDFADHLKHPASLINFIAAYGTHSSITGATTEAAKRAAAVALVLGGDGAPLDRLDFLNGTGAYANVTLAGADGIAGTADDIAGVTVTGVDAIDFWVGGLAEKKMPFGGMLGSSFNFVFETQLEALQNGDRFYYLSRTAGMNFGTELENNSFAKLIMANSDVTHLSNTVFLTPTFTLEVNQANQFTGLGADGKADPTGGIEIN

Cc1c(N)c(=O)n(-c2ccccc2)n1C [4-aminoantipyrine]
peroxidase assay, quinoneimine formation at 510 nm: oxidation of 4-aminoantipyrine (same electron donor than the one used in this study)
